*1 amine or outer side, *2 acyl side, *3 side chain or, on linkers, in order; H or OH if unused. Where a SMILES comes first, the peptide text is derived from it. Where no end group is shown, it is not given here. Side-chain parts run from the residue outwards. [ ]: non-standard residue; d: D form. The star is where a group is joined. γGlu = O=C(O)[C@H](CCC(=O)[*:2])N[*:1]; Palmitoyl = CCCCCCCCCCCCCCCC(=O)*; Aib = CC(C)(N)C(=O)O
Assays:
Type in all cases: in vivo
[1] = diet-induced obese (DIO) mice, daily dosing for nine days: body weight and ambient glucose
Protocol: Mice were administered a vehicle control or a dose of a peptide daily for nine days. The peptides tested in this study included a peptide of SEQ ID NO: 12, a peptide of SEQ ID NO: 17, a peptide of SEQ ID NO: 18, and a peptide of SEQ ID NO: 19. Doses of each peptide were varied—each of the peptides of SEQ ID NO: 12, 17, and 19 was administered at a dose of either 3 nmol/kg or 9 nmol/kg, while the peptide of SEQ ID NO: 18 was administered at a dose of 1 nmol/kg, 3 nmol/kg, or 9 nmol/kg. Data are expressed as mean±SEM.
In addition to cumulative body weight change, ambient glucose levels of the DIO mice were measured.

[2] = obese rhesus monkeys, daily dosing for 21 days: body weight and food intake
Protocol: The in vivo effects of a peptide of the invention were confirmed in obese rhesus monkeys by administering daily for 21 days a vehicle control, a commercially available product (Liraglutide), a peptide of SEQ ID NO: 20, or a peptide of SEQ ID NO: 17. […] Body weight and food intake were measured.

[3] = diabetic rhesus monkeys, 10 days treatment: body weight, fasting blood glucose, Meal Tolerance Test; conditions: 1 μg/kg s.c. for 10 days
Protocol: The in vivo effects of a peptide of the invention were tested in diabetic rhesus monkeys (n=7) that were aged 16-26 years and having an average body weight of […]. Diabetic rhesus monkeys (n=7) that were aged 16-26 years with an average body weight of […] were administered a vehicle control, Liraglutide at a dose of 10 μg/kg s.c. or a peptide of SEQ ID NO: 17 at a dose of 1 μg/kg s.c. for 10 days. At the end of each treatment, fasting blood glucose (FBG) was measured first followed by a Meal Tolerance Test (MTT) to assess glucose tolerance. […] Data are expressed in FIG. 4 as mean±SEM. *P<0.05 versus vehicle.

Row | Compound | reduction in glucose levels compared to vehicle control mice ([1]; 3 nmol/kg, Day 7) | decrease in glucose levels compared to vehicle control mice ([1]; 3 nmol/kg, Day 9) | decrease in glucose levels compared to vehicle control mice ([1]; 9 nmol/kg, Day 4) | decrease in glucose levels compared to vehicle control mice ([1]; 9 nmol/kg, Day 7) | decrease in glucose levels compared to vehicle control mice ([1]; 9 nmol/kg, Day 9) | body weight following a one week wash-out ([2]; Day 28) | food intake, % change vs. baseline ([2]; daily s.c. for 21 days, Liraglutide 20 μg/kg, SEQ ID NO: 17 3 μg/kg) | glucose tolerance during Meal Tolerance Test (MTT) compared to vehicle [3] | decrease in ambient glucose vs. vehicle ([1]; 3 nmol/kg or 9 nmol/kg dose, by Day 4)
1 | CCCCCCCCCCCCCCCC(=O)N[C@@H](CCC(=O)N[C@@H](CCC(=O)NCCCC[C@H](NC(=O)[C@H](CC(=O)O)NC(=O)[C@H](CO)NC(=O)[C@@H](NC(=O)[C@H](Cc1ccccc1)NC(=O)[C@@H](NC(=O)CNC(=O)[C@H](CCC(N)=O)NC(=O)C(C)(C)NC(=O)[C@@H](N)Cc1c[nH]cn1)[C@@H](C)O)[C@@H](C)O)C(=O)N[C@@H](CO)C(=O)N[C@@H](CCCCN)C(=O)N[C@@H](Cc1ccc(O)cc1)C(=O)N[C@@H](CC(C)C)C(=O)N[C@@H](CC(=O)O)C(=O)NC(C)(C)C(=O)N[C@@H](CCCNC(=N)N)C(=O)N[C@@H](C)C(=O)N[C@@H](C)C(=O)N[C@@H](CCC(N)=O)C(=O)N[C@@H](CC(=O)O)C(=O)N[C@@H](Cc1ccccc1)C(=O)N[C@H](C(=O)N[C@@H](CCC(N)=O)C(=O)N[C@@H](Cc1c[nH]c2ccccc12)C(=O)N[C@@H](CC(C)C)C(=O)N[C@@H](CCSC)C(=O)N[C@@H](CC(N)=O)C(=O)N[C@H](C(=O)N[C@@H](CCCCN)C(=O)N[C@@H](CCC(N)=O)C(=O)O)[C@@H](C)O)C(C)C)C(=O)O)C(=O)O [SEQ ID NO: 17] (H-H[Aib]QGTFTSDK([γGlu-γGlu-Palmitoyl])SKYLD[Aib]RAAQDFVQWLMNTKQ-OH; N-terminus assumed) | ~28% | ~19% | ~48% | ~48% | ~45% | regained much of the weight that was lost | −25.7%±3.2 | improved glucose tolerance | –
2 | SEQ ID NO: 18: peptide of SEQ ID NO: 18 of the sequence listing, tested in DIO mice; sequence not printed in the text (HXQGTFTSDKSKYLDERAAQDFVQWLMDT; (2)..(2) Xaa is AIB; (10)..(10) Acylated with a C16 fatty acyl group via gamma-Glu-gamma-Glu spacer; (29)..(29) C-terminal amidation) | – | – | – | – | – | – | – | – | −29%
3 | SEQ ID NO: 19: peptide of SEQ ID NO: 19 of the sequence listing, tested in DIO mice; sequence not printed in the text (H[dS]QGTFTSDK([γGlu-Palmitoyl])SKYLDERAAQDFVQWLLDT-NH2; N-terminus assumed; SMILES CCCCCCCCCCCCCCCC(=O)N[C@@H](CCC(=O)NCCCC[C@H](NC(=O)[C@H](CC(=O)O)NC(=O)[C@H](CO)NC(=O)[C@@H](NC(=O)[C@H](Cc1ccccc1)NC(=O)[C@@H](NC(=O)CNC(=O)[C@H](CCC(N)=O)NC(=O)[C@@H](CO)NC(=O)[C@@H](N)Cc1c[nH]cn1)[C@@H](C)O)[C@@H](C)O)C(=O)N[C@@H](CO)C(=O)N[C@@H](CCCCN)C(=O)N[C@@H](Cc1ccc(O)cc1)C(=O)N[C@@H](CC(C)C)C(=O)N[C@@H](CC(=O)O)C(=O)N[C@@H](CCC(=O)O)C(=O)N[C@@H](CCCNC(=N)N)C(=O)N[C@@H](C)C(=O)N[C@@H](C)C(=O)N[C@@H](CCC(N)=O)C(=O)N[C@@H](CC(=O)O)C(=O)N[C@@H](Cc1ccccc1)C(=O)N[C@H](C(=O)N[C@@H](CCC(N)=O)C(=O)N[C@@H](Cc1c[nH]c2ccccc12)C(=O)N[C@@H](CC(C)C)C(=O)N[C@@H](CC(C)C)C(=O)N[C@@H](CC(=O)O)C(=O)N[C@H](C(N)=O)[C@@H](C)O)C(C)C)C(=O)O) | – | – | ~40% | ~39% | ~26% | – | – | – | –

From patent US10730923B2 (Indiana University Research and Technology Corporation, priority 2011, dated 2020)
